Test results published in publication PMC6192554, “In vitro toxicity and efficacy of verdinexor, an exportin 1 inhibitor, on opportunistic viruses affecting immunocompromised individuals” (PLoS ONE, 2018).

Assays:
[1] = system: Human adenovirus type 5; assay: Adenovirus virus yield (TCID50) assay in HeLa cells; format: cell-based; details: Human mastadenovirus C
Experimental: Human adenovirus type 5 was obtained from ATCC and cultured in HeLa cells under standard conditions.
Prior to assessing cell viability using MTS, supernatants were collected from plates and titrated to determine virus yield. Serial dilutions of supernatants were incubated on HeLa cells for 3 days. Following incubation, wells were visually scored for infection and TCID50, EC50, CC50 and SI were calculated for each sample.

[2] = Cytotoxicity in GPL cells; format: cell-based; details: primary guinea pig lung cells (GPL), Guinea pig CMV primary screen
Experimental: Cytotoxicity assays: Concurrent assessment of cytotoxicity was also performed for each study in the same cell line and with the same compound exposure. For HCMV cytotoxicity assay was determined via neutral red uptake assay and was conducted as reported previously in HFF cells. Optical densities were determined at 550nm. Cytotoxicity assay was performed in a manner analogous to HCMV (see above).

For `O=C(C=Cn1cnc(-c2cc(C(F)(F)F)cc(C(F)(F)F)c2)n1)NNc1ccccn1` (stereo in doubt) [verdinexor, (E)-3-[3-[3,5-bis(trifluoromethyl)phenyl]-1,2,4-triazol-1-yl]-N'-pyridin-2-ylprop-2-enehydrazide], the EC50 ([1]; Ad5, primary screen) was > 180 nM, the EC50 ([1]; Ad5, secondary screen) was < 30 nM and the CC50 [2] was 2000 nM.
